What follows are compounds tested against T1, KMO mouse enzyme (Mus musculus, UniProt Q91WN4) (assay: L-Kynurenine hydroxylation to 3OH-KYN by LC/MS, mouse liver mitochondrial KMO). Settings: compound at 10 μM, read-out: INH.Mouse @ 10 μM.
T1 construct: KMO enzyme prepared at Evotec from mouse liver (4-6 weeks old) via mitochondria isolation; from tissue; host or cells: mouse liver (4-6 weeks old), mitochondria isolation
Assay type: biochemical
Experimental: A method of monitoring L-Kynurenine (KYN) hydroxylation to form 3-Hydroxy-Kynurenine (3OH-KYN) by LC/MS is described. Product is quantified by multiple reaction monitoring (MRM method).
• Compound: Stock concentrations: 10 mM in 100% DMSO • Enzyme: KMO enzyme prepared at Evotec from mouse liver (4-6 weeks old) via mitochondria isolation as described in the literature • Substrate: L-Kynurenine (Sigma: Cat# K3750, stock concentration: 10 mM in 100 mM potassium phosphate buffer, pH 7.4) Assay Conditions: • Buffer: 100 mM potassium phosphate, pH 7.4, 200 μM NADPH, 0.4 U/ml G6P-DH (Glucose 6-phosphate Dehydrogenase), 3 mM G6P (D-Glucose 6-phosphate) • Assay Volume: 40 μl • Plate Format: 384 well plate, transparent (Matrix) • Read-Out: product (3OH-KYN) quantification using product specific MRM • Reader: LC/MS/MS Assay Protocol: • prepare serial dilution (factor 3) of compound in 100% DMSO (top concentration=10 mM, 100% DMSO) • [8 points: 10 mM; 3.33 mM; 1.11 mM; 0.37 mM; 0.12 mM; 0.04 mM; 0.0137 mM; 0.0045 mM, 0.0015 mM] • prepare […] concentrated solution of each compound concentration (top concentration 300 μM, 3% DMSO) in assay buffer • [concentrations: 300 μM; 100 μM; 33.3 μM; 11.1 μM; 3.70 μM; 1.23 μM; 0.41 μM; 0.137 μM] • prepare substrate (10 mM) at concentration of 1 mM in assay buffer • assay mix: 4 μl compound/well of each concentration+24 μl assaybuffer/well+8 μl KMO mouse enzyme+4 μl 1 mM substrate (final concentration=100 μM) • [final compound top concentration: 30 μM; 0.3% DMSO] • [final compound bottom concentration: 0.0137 μM; 0.3% DMSO] • positive control: 4 μl 50 μM FCE28833 in assay buffer, 0.5% DMSO [final assay concentration=5 μM]+24 μl assaybuffer/well+8 μl KMO mouse enzyme+4 μl 1 mM substrate [final concentration=100 μM] • negative control: 28 μl assay buffer/well+8 μl KMO mouse enzyme+4 μl 1 mM substrate [final concentration=100 μM] • incubate 40 min at RT • add 40 μl/well 10% trichloro acetic acid in water to stop the assay and precipitate protein • centrifuge plate for 3 min at 4000 rpm • product detection by LC/MS (injection of 20 μl/well, 2 fold overfill of the 10 μl sample loop) Data Analysis:
IC50's are calculated using automated fitting algorithm (A+Analysis).
Using procedures similar to those described herein, the following compounds were assayed for activity.

T1 sequence (Q91WN4 whole entry): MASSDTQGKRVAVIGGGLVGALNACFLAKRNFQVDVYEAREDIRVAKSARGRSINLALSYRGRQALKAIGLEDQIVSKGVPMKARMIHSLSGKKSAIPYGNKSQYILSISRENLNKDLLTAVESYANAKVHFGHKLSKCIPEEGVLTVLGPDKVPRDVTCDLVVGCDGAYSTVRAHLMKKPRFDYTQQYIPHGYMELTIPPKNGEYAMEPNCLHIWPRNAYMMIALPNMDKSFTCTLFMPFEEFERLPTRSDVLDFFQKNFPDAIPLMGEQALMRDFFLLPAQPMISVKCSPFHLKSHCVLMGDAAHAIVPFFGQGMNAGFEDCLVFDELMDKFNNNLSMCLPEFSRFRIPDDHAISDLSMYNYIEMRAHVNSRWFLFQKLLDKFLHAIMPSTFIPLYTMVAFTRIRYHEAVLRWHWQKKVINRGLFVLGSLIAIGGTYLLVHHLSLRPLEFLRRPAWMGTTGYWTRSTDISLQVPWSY

| Structure (SMILES) | inhibition at 10 µM |
| --- | --- |
| Cc1ncc(NC(=O)CC2CON=C2c2ccc(Cl)c(Cl)c2)cn1 (stereo not drawn) [2-[3-(3,4-Dichloro-phenyl)-4,5-dihydro-isoxazol-4-yl]-N-(2-methyl-pyrimidin-5-yl)-acetamide] | 81.2% |
| Cc1cc(NC(=O)CC2CON=C2c2ccc(Cl)c(Cl)c2)on1 (stereo not drawn) [2-[3-(3,4-Dichloro-phenyl)-4,5-dihydro-isoxazol-4-yl]-N-(3-methyl-isoxazol-5-yl)-acetamide] | 64% |
| O=C(CC1CON=C1c1ccc(Cl)c(Cl)c1)Nc1cccnc1 (stereo not drawn) [2-[3-(3,4-Dichloro-phenyl)-4,5-dihydro-isoxazol-4-yl]-N-pyridin-3-yl-acetamide] | 77.2% |
| O=C(CC1CON=C1c1ccc(Cl)c(Cl)c1)Nc1cncnc1 (stereo not drawn) [2-[3-(3,4-Dichloro-phenyl)-4,5-dihydro-isoxazol-4-yl]-N-pyrimidin-5-yl-acetamide] | 82.7% |
| NC(=O)CC1CON=C1c1ccc(Cl)c(Cl)c1 (stereo not drawn) [2-[3-(3,4-Dichloro-phenyl)-4,5-dihydro-isoxazol-4-yl]-acetamide] | 60.4% |
| O=C(O)CC1CON=C1c1cccc(Cl)c1 (stereo not drawn) [3-(3-Chloro-phenyl)-4,5-dihydro-isoxazol-4-yl]-acetic acid] | 106% |
| COC(=O)CC1CON=C1c1ccc(Cl)c(Cl)c1 (stereo not drawn) [[3-(3,4-Dichloro-phenyl)-4,5-dihydro-isoxazol-4-yl]-acetic acid methyl ester] | 102% |
| O=C(O)CC1CON=C1c1ccc(Cl)c(Cl)c1 (stereo not drawn) [[3-(3,4-Dichloro-phenyl)-4,5-dihydro-isoxazol-4-yl]-acetic acid] | 101% |
| COC(=O)CC1CC(c2ccc(Cl)c(Cl)c2)=NO1 (stereo not drawn) [[3-(3,4-Dichloro-phenyl)-4,5-dihydro-isoxazol-5-yl]-acetic acid methyl ester] | 88.4% |
| O=C(O)CC1CC(c2ccc(Cl)c(Cl)c2)=NO1 (stereo not drawn) [[3-(3,4-Dichloro-phenyl)-4,5-dihydro-isoxazol-5-yl]-acetic acid] | 93.3% |
| CC1ON=C(c2ccc(Cl)c(Cl)c2)C1CC(=O)O (stereo not drawn) [[3-(3,4-Dichloro-phenyl)-5-methyl-4,5-dihydro-isoxazol-4-yl]-acetic acid] | 84.5% |
| O=C(O)Cc1conc1-c1ccc(Cl)c(Cl)c1 [[3-(3,4-Dichloro-phenyl)-isoxazol-4-yl]-acetic acid] | 74.7% |
| CCOC(=O)Cc1cc(-c2ccc(Cl)c(Cl)c2)no1 [[3-(3,4-Dichloro-phenyl)-isoxazol-5-yl]-acetic acid ethyl ester] | 60.8% |
| COC(=O)Cc1cc(-c2ccc(Cl)c(Cl)c2)no1 [[3-(3,4-Dichloro-phenyl)-isoxazol-5-yl]-acetic acid methyl ester] | 66.4% |
| O=C(O)Cc1cc(-c2ccc(Cl)c(Cl)c2)no1 [[3-(3,4-Dichloro-phenyl)-isoxazol-5-yl]-acetic acid] | 74.5% |

Reference: patent US8691824B2, “Certain kynurenine-3-monooxygenase inhibitors, pharmaceutical compositions, and methods of use thereof” (CHDI Foundation, Inc., priority 2008, dated 2014)
